Measured values as given in patent publication US11840541B2 (priority 2014, dated 2023).
Entries after “also recorded” stand apart in the source; their conditions may differ. Where two headings read alike, the source gives them in different places.

Key:
[1] = target: T1, Human KOR (Homo sapiens, UniProt P41145); assay: cell-based; details: for Emax: read-out: Emax in parentheses, Human KOR
T1 construct: expressed in transfected cells; host or cells: HEK-293T

[2] = target: T2, Human DOR (Homo sapiens, UniProt P41143); assay: cell-based
T2 construct: expressed in transfected cells; host or cells: HEK-293T
T2 sequence (P41143 whole entry): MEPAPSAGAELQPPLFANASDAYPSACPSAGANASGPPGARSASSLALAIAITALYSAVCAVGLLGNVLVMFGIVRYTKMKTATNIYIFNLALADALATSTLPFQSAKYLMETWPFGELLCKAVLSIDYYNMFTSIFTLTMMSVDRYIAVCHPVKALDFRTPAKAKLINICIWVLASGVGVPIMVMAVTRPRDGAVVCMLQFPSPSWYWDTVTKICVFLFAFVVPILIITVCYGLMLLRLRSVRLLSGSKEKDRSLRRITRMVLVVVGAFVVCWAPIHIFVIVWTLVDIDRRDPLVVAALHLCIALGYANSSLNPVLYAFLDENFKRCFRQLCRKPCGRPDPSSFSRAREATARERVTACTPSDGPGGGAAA

[3] = target: T3, Human MOR (Homo sapiens, UniProt P35372); assay: cell-based
T3 construct: expressed in transfected cells; host or cells: HEK-293T
T3 sequence (P35372 whole entry): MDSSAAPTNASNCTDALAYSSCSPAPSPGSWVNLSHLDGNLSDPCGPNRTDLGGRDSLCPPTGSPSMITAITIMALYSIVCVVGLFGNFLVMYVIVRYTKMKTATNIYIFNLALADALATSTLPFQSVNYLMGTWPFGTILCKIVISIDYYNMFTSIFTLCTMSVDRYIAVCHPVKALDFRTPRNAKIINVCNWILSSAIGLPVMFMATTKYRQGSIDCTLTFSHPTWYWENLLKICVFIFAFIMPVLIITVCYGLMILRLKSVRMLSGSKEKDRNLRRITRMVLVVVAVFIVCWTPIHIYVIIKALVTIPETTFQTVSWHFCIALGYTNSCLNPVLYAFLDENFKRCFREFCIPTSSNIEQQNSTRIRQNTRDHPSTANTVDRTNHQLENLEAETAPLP

[4] = target: T1, Human KOR; assay: BRET functional assay, inhibition of reference agonist U-50,488 (antagonist mode), human KOR; assay type: cell-based
[5] = read-out: EC50 at indicated opioid receptor, Human DOR
[6] = EC50 at indicated opioid receptor, Human MOR
[7] = EC50, induced BRET signal, Human KOR
[8] = EC50 at indicated opioid receptor, Human KOR
[9] = EC50, induced BRET signal, Human DOR
[10] = EC50 at indicated opioid receptor, Human DOR
[11] = EC50, induced BRET signal, Human MOR

T1 sequence (P41145 whole entry): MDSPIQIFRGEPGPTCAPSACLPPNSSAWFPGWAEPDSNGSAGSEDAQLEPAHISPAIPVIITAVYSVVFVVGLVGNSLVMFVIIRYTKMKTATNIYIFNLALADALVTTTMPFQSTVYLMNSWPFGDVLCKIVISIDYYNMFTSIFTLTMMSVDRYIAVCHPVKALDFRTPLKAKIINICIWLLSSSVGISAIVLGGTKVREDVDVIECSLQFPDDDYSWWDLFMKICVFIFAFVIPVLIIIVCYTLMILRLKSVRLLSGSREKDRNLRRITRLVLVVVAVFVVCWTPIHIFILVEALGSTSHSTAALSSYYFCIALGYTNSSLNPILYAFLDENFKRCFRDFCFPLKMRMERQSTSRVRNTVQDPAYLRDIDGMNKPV

SMILES | EC50 [3, 6] [µM] | EC50 [1, 8] [µM] | EC50 [2, 10] [µM] | other results
CCC1CC2CC3c4oc5ccc(OC)cc5c4CCN(C2)C13 (single isomer, unassigned) [Compound 34c] | > 10 |  |  | EC50 ([1]; read-out: EC50 at indicated opioid receptor, Human KOR): > 10 µM; EC50 [2, 5]: > 100 µM
CCC1CC2CC3c4oc5ccc(O)cc5c4CCN(C2)C13 (stereo not drawn) [Compound 35a] | < 10 | < 10 | < 10 | agonist activity at KOR (in words) [1]: full agonist; EC50 [1, 7]: 0.66 ± 0.13 µM; agonist activity at DOR (in words) [2]: full agonist; EC50 [2, 9]: 4.5 ± 1.2 µM; agonist activity at MOR (in words) [3]: full agonist; EC50 [3, 11]: 0.98 ± 0.14 µM
COCC1CC2CC3c4oc5ccc(OC)cc5c4CCN(C2)C13 (stereo not drawn) [Compound 59g] |  |  |  | EC50 ([1]; EC50, Human KOR): < 10 µM; EC50 ([2]; EC50, Human DOR): > 100 µM; EC50 ([3]; EC50, Human MOR): > 100 µM
CCCC1CC2CC3c4oc5ccc(O)cc5c4CCN(C2)C13 (stereo not drawn) [Compound 35c] | < 10 | < 10 | < 10 | 
CCC1(CC)CC2CC3c4oc5ccc(O)cc5c4C[C@@H](C)N(C2)C31 (stereo partly drawn) [α-endo-52f] | > 100 |  | > 100 | agonist activity at KOR (in words) [1]: selective KOR agonist; EC50 [1, 7]: 0.12 ± 0.014 µM; Emax [1]: 47%; agonist activity at DOR (in words) [2]: not active as agonist; agonist activity at MOR (in words) [3]: not active as agonist
Oc1ccc2oc3c(c2c1)CCN1CC2CC(c4ccccc4)C1C3C2 (stereo not drawn) [Compound 35l] | > 10 | > 10 | > 10 | 
CCC1CC2CC3c4oc5cc(OC)ccc5c4CCN(C2)C13 (stereo not drawn) [Compound 34k] | < 10 | < 10 | > 10 | 
COc1ccc2oc3c(c2c1)CCN1CC2CCC1C3C2 (stereo not drawn) [Compound 34h] | > 100 | > 10 | > 100 | 
CCC1CC2CC3c4oc5ccc(F)cc5c4CCN(C2)C13 (stereo not drawn) [Compound 34j] | > 10 | > 10 | > 100 | 
CCC1CC2CC3c4oc5cc(C)c(OC)cc5c4CCN(C2)C13 (stereo not drawn) [Compound 51c] |  |  |  | EC50 ([1]; EC50, Human KOR): > 10 µM; EC50 ([2]; EC50, Human DOR): > 10 µM; EC50 ([3]; EC50, Human MOR): > 10 µM
Oc1ccc2oc3c(c2c1)CCN1CC2CC(Cc4ccccc4)C1C3C2 (stereo not drawn) [Compound 35g] | < 10 | < 10 | < 10 | 
OCC1CC2CC3c4oc5ccc(O)cc5c4CCN(C2)C13 (stereo not drawn) [Compound 35j] | < 10 | < 10 | < 10 | 
CC1C2CCC3C(C2)c2oc4ccc(O)cc4c2CCN13 (stereo not drawn) [Compound 60d] |  |  |  | EC50 ([1]; EC50, Human KOR): < 10 µM; EC50 ([2]; EC50, Human DOR): > 100 µM; EC50 ([3]; EC50, Human MOR): < 10 µM
CCC1CC2CC3c4oc5ccc(O)cc5c4C[C@H](C)N(C2)C13 (single isomer, unassigned) [α-exo-52e] |  |  |  | Emax [1]: 88%; Emax ([2]; read-out: Emax in parentheses, Human DOR): 98%; EC50 (μM) with Emax in parentheses, Human MOR [3]: 0.40 μM ± 0.056 (98%)
CCC1CC2CC3c4oc5ccc(O)cc5c4C[C@H](C)N(C2)C13 (single isomer, unassigned) [α-exo-52f] |  |  | > 100 | EC50 with Emax in parentheses [1]: 0.14 μM ± 0.006 (72%); EC50 (μM) with Emax in parentheses, Human MOR [3]: 0.48 μM ± 0.20 (50%)
CCC1CC2CC3c4sc5ccc(O)cc5c4CCN(C2)C13 (stereo not drawn) [Compound 35n] | < 10 | < 10 | > 100 | 
CCC1CC2CC3c4oc5c(O)cccc5c4CCN(C2)C13 (stereo not drawn) [Compound 52a] | > 100 | > 10 | > 100 | 
OCC1CC2CC3c4oc5ccc(O)cc5c4CCN(C2)C13 (stereo not drawn) [Compound 60g] |  |  |  | EC50 ([1]; EC50, Human KOR): < 10 µM; EC50 ([2]; EC50, Human DOR): > 10 µM; EC50 ([3]; EC50, Human MOR): > 10 µM
CCCCC1CC2CC3c4oc5ccc(O)cc5c4CCN(C2)C13 (stereo not drawn) [Compound 35h] | < 10 | < 10 | < 10 | 
CCC1CC2CC3c4oc5cc(O)ccc5c4CCN(C2)C13 (stereo not drawn) [Compound 35f] | < 10 | < 10 | > 10 | 
CCC1CC2CC3c4oc5ccccc5c4CCN(C2)C13 (stereo not drawn) [Compound 34a, 7-ethyl-6,6a,7,8,9,10,12,13-octahydro-6,9-methanobenzofuro[2,3-d] pyrido[1,2-a]azepine] | > 100 | > 10 | > 100 | 
CCC1CC2CC3c4sc5ccc(OC)cc5c4CCN(C2)C13 (stereo not drawn) [Compound 34r] | > 10 | > 10 | > 100 | 
CCC1CC2CC3c4oc5cccc(OC)c5c4CCN(C2)C13 (stereo not drawn) [Compound 51b] |  |  |  | EC50 ([1]; EC50, Human KOR): > 10 µM; EC50 ([2]; EC50, Human DOR): > 100 µM; EC50 ([3]; EC50, Human MOR): > 10 µM

SMILES | EC50 [3, 6] [µM] | EC50 [1, 8] [µM] | EC50 [2, 10] [µM] | other results
CCC1CC2(C)CC3c4oc5ccc(O)cc5c4CCN(C2)C13 (single isomer, unassigned) [Compound 60c] |  |  |  | EC50 ([1]; EC50, Human KOR): < 10 µM; EC50 ([2]; EC50, Human DOR): > 10 µM; EC50 ([3]; EC50, Human MOR): < 10 µM
COCC1CC2CC3c4oc5ccc(OC)cc5c4CCN(C2)C13 (stereo not drawn) [Compound 34m] | > 10 | > 10 | > 10 | 
CCCC1CC2CC3c4oc5ccc(OC)cc5c4CCN(C2)C13 (stereo not drawn) [Compound 34e] | > 10 | > 100 | > 100 | 
CCC1CC2CC3c4sc5ccccc5c4CCN(C2)C13 (stereo not drawn) [Compound 34q, 7-ethyl-6,6a,7,8,9,10,12,13-octahydro-6,9-methanobenzo[4,5] thieno[2,3-d]pyrido[1,2-a]azepine] | > 100 | > 10 | > 100 | 
CCC1CC2CC3c4oc5cc(F)c(OC)cc5c4CCN(C2)C13 (stereo not drawn) [Compound 34l] | > 100 | > 10 | > 100 | 
CCC1CC2CC3c4oc5ccc(O)cc5c4C[C@@H](C)N(C2)C13 (stereo partly drawn) [α-endo-52e] |  |  | > 100 | Emax [1]: 26%; Emax ([3]; read-out: Emax in parentheses, Human MOR): 24%
CCCC1CC2CC3c4oc5ccc(O)cc5c4CCN(C2)C13 (stereo not drawn) [Compound 35d] |  |  |  | agonist activity at KOR (in words) [1]: agonist activity; EC50 [1, 7]: 0.297 ± 0.03 µM; agonist activity at DOR (in words) [2]: agonist activity; EC50 [2, 9]: 5.7 ± 5.1 µM; agonist activity at MOR (in words) [3]: agonist activity; EC50 [3, 11]: 0.922 ± 0.282 µM
CCC1CC2CC3c4oc5cc(C)c(O)cc5c4CCN(C2)C13 (stereo not drawn) [Compound 52c] | > 10 | > 10 | > 10 | 
COCC1CC2CC3c4oc5ccc(O)cc5c4CCN(C2)C13 (stereo not drawn) [Compound 35i] | < 10 | < 10 | < 10 | 
Oc1ccc2oc3c(c2c1)CCN1CC2CC(c4ccccc4)C1C3C2 (stereo not drawn) [Compound 35m] | < 10 | > 100 | < 10 | 
CCCC1CC2CC3c4oc5ccc(OC)cc5c4CCN(C2)C13 (stereo not drawn) [Compound 34f] | > 100 | > 10 |  | EC50 [2, 5]: > 100 µM
CCCCC1CC2CC3c4oc5ccc(OC)cc5c4CCN(C2)C13 (stereo not drawn) [Compound 34i] | > 10 | > 10 | > 100 | 
CC[C@@H]1Cc2c(oc3ccc(O)cc23)C2CC3CCC2N1C3 (stereo partly drawn) [α-endo-60f] |  |  |  | EC50 ([1]; EC50, Human KOR): > 10 µM; EC50 ([2]; EC50, Human DOR): > 100 µM; EC50 ([3]; EC50, Human MOR): > 100 µM
COc1ccc2oc3c(c2c1)CCN1CC2CC(c4ccccc4)C1C3C2 (stereo not drawn) [Compound 34n] | > 100 | > 10 | > 100 | 
CCC1CC2CC3c4oc5cc(F)c(O)cc5c4CCN(C2)C13 (stereo not drawn) [Compound 35k] | < 10 | < 10 | < 10 | 
CC[C@H]1Cc2c(oc3ccc(O)cc23)C2CC3CCC2N1C3 (stereo partly drawn) [α-exo-60f] |  |  |  | EC50 ([1]; EC50, Human KOR): < 10 µM; EC50 ([2]; EC50, Human DOR): < 10 µM; EC50 ([3]; EC50, Human MOR): < 10 µM
CCC1CC2(C)CC3c4oc5ccc(O)cc5c4CCN(C2)C13 (single isomer, unassigned) [Compound 60b] |  |  |  | EC50 ([1]; read-out: EC50, Human KOR): < 10 µM; EC50 ([2]; EC50, Human DOR): < 10 µM; EC50 ([3]; read-out: EC50, Human MOR): < 10 µM
CCC1CC2CC3c4oc5ccc(O)cc5c4C[C@@H](CC)N(C2)C13 (stereo partly drawn) [α-endo-52g] | > 100 | > 100 | > 100 | agonist activity at KOR (in words) [1]: not active as agonist; also recorded: no agonist activity; agonist activity at DOR (in words) [2]: not active as agonist; IC50 [4]: 8.2 ± 0.5 µM; antagonist activity at KOR (in words) [4]: KOR antagonist; agonist activity at MOR (in words) [3]: not active as agonist
Oc1ccc2oc3c(c2c1)CCN1CC2CCC1C3C2 (stereo not drawn) [Compound 35e] | < 10 | < 10 | > 100 | 
CCC1CC2CC3c4oc5cccc(O)c5c4CCN(C2)C13 (stereo not drawn) [Compound 52b] | > 10 | > 100 | > 100 | 
Oc1ccc2oc3c(c2c1)CCN1CC2CC(Cc4ccccc4)C1C3C2 (stereo not drawn) [Compound 60h] |  |  |  | EC50 ([1]; EC50, Human KOR): > 10 µM; EC50 ([2]; EC50, Human DOR): > 10 µM; EC50 ([3]; EC50, Human MOR): > 10 µM
CCC1CC2CC3c4oc5ccc(OC)cc5c4CCN(C2)C13 (single isomer, unassigned) [Compound 34d] | > 100 | > 10 | > 100 | 
